Measured values taken from PubChem BioAssay (NCI).
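Growth conditions: 96-well plates. Treatment: test compound, 48 hours, 5 concentrations. Analysis: linear interpolation between bracketing concentrations; unreached endpoints set to highest concentration. GI50 marks 50% less growth. TGI denotes the concentration required for complete inhibition of growth.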

Tests used:
Test in all cases: growth of human tumour cells (NCI), 48 h
UO-31 renal = tested on: UO-31 renal
HT29 colon = tested on: HT29 colon
U251 CNS = tested on: U251 CNS
RXF 393 renal = tested on: RXF 393 renal
OVCAR-3 ovarian = tested on: OVCAR-3 ovarian
HCT-15 colon = tested on: HCT-15 colon
KM12 colon = tested on: KM12 colon
CCRF-CEM leukemia = tested on: CCRF-CEM leukemia
RPMI-8226 leukemia = tested on: RPMI-8226 leukemia
A549 NSCLC = tested on: A549 NSCLC

SMILES	TGI (UO-31 renal) [µM]	TGI (HT29 colon) [µM]	TGI (U251 CNS) [µM]	TGI (RXF 393 renal) [µM]	TGI (OVCAR-3 ovarian) [µM]	TGI (HCT-15 colon) [µM]	TGI (KM12 colon) [µM]	TGI (CCRF-CEM leukemia) [µM]	TGI (RPMI-8226 leukemia) [µM]	TGI (A549 NSCLC) [µM]	GI50 (UO-31 renal) [µM]	GI50 (HT29 colon) [µM]	GI50 (U251 CNS) [µM]	GI50 (RXF 393 renal) [µM]	GI50 (OVCAR-3 ovarian) [µM]	GI50 (HCT-15 colon) [µM]	GI50 (KM12 colon) [µM]	GI50 (CCRF-CEM leukemia) [µM]	GI50 (RPMI-8226 leukemia) [µM]	GI50 (A549 NSCLC) [µM]
COc1ccccc1NC(=O)C1=C(C)NC(C)=C(C(=O)Nc2ccccc2OC)C1c1ccccc1[N+](=O)[O-]	37.6	37	29.7	> 100	39.1	27.5	35	48.9	65.6	> 100	–	–	–	–	–	–	–	–	–	–
Cc1ccc(C(=O)CC2(O)C(=O)Nc3c(C)cc(Cl)cc32)cc1 (stereo not given)	> 100	> 100	> 100	> 100	> 100	> 100	> 100	> 100	> 100	> 100	–	–	–	–	–	–	–	–	–	–
CC(=O)CCCCn1c(=O)c2c(nc(Br)n2C)n(C)c1=O	> 100	> 100	> 100	> 100	> 100	> 100	> 100	> 100	> 100	> 100	–	–	–	–	–	–	–	–	–	–
CSc1ncnc2c1cnn2Cc1cn(COCCO)nn1	> 100	55.4	> 100	> 100	59.1	> 100	> 100	> 100	> 100	> 100	–	–	–	–	–	–	–	–	–	–
CNC(=O)c1n[nH]n(C2CCCCC2)c1=S	> 100	> 100	> 100	> 100	37	> 100	> 100	> 100	> 100	> 100	–	–	–	–	–	–	–	–	–	–
COc1ccc(/C=c2\c(=O)[nH]c3nc4ccccc4c(=O)n23)cc1	> 100	> 100	> 100	> 100	> 100	> 100	> 100	> 100	> 100	> 100	–	–	–	–	–	–	–	–	–	–
CC1=NN=C(C)C1N=Nc1ccc2nc(C)[nH]c2c1	77.5	> 100	> 100	55.5	> 73.6	> 100	> 100	> 100	> 100	> 100	–	–	–	–	–	–	–	–	–	–
COc1nc(N=P(c2ccccc2)(c2ccccc2)c2ccccc2)cc(=O)n1C	> 100	> 100	> 100	> 100	> 100	> 100	> 100	> 100	> 100	> 100	–	–	–	–	–	–	–	–	–	–
O=C1Oc2ccccc2C1C/C(=N\Nc1ccccc1)c1ccccc1O (stereo not given)	77.6	78.5	> 100	> 100	> 100	> 100	45.8	> 100	72.3	> 100	–	–	–	–	–	–	–	–	–	–
O=c1[nH]nc(Cc2ccccc2)n1/N=C/c1cccs1	> 100	> 100	> 100	> 100	> 100	> 100	> 100	> 100	> 100	> 100	–	–	–	–	–	–	–	–	–	–
NS(=O)(=O)c1ccc(NC(=O)N/N=C/c2ccccc2O)cc1	> 100	> 100	> 100	> 100	> 100	> 100	> 100	> 100	> 100	> 100	–	–	–	–	–	–	–	–	–	–
O=C(Cc1ccccc1)NN1C(=O)C(Cl)C1c1ccccc1Cl (stereo not given)	> 100	> 100	> 100	> 100	> 100	> 100	> 100	55.8	51.1	> 100	–	–	–	–	–	–	–	–	–	–
Brc1ccc(C2C3CSc4ccccc4C3=NN2c2ccccc2)cc1 (stereo not given)	> 100	> 100	> 100	> 100	> 100	> 100	> 100	> 100	> 100	> 100	–	–	–	–	–	–	–	–	–	–
Clc1ccc(Cl)c(N=Nc2cc3c4c(c2)CCN4CCC3)c1	> 10	> 10	> 10	> 10	> 10	> 10	> 10	> 10	> 10	> 10	–	–	–	–	–	–	–	–	–	–
CS(=O)(=O)N1CC(CCl)c2ccc(NO)cc21 (stereo not given)	16.5	29.4	32.8	10.9	40.7	28.6	36.2	5.1	16	> 100	–	–	–	–	–	–	–	–	–	–
COC1(CC[C@@H](C)COC2OC(CO)C(O)C(O)C2O)O[C@H]2C[C@H]3[C@@H]4CC=C5C[C@@H](OC6OC(CO)C(OC7OC(C)C(O)C(O)C7O)C(O)C6OC6OC(C)C(O)C(O)C6O)CC[C@]5(C)[C@H]4CC[C@]3(C)[C@H]2[C@@H]1C (stereo not given in full)	5.2	4.3	4.31	5.45	6.64	3.66	2.65	20.2	13.7	4.22	1.69	1.89	1.61	1.92	2.04	1.72	1.01	7.6	3.83	1.55

SMILES	TGI (UO-31 renal) [µM]	TGI (HT29 colon) [µM]	TGI (U251 CNS) [µM]	TGI (RXF 393 renal) [µM]	TGI (OVCAR-3 ovarian) [µM]	TGI (HCT-15 colon) [µM]	TGI (KM12 colon) [µM]	TGI (CCRF-CEM leukemia) [µM]	TGI (RPMI-8226 leukemia) [µM]	TGI (A549 NSCLC) [µM]	GI50 (UO-31 renal) [µM]	GI50 (HT29 colon) [µM]	GI50 (U251 CNS) [µM]	GI50 (RXF 393 renal) [µM]	GI50 (OVCAR-3 ovarian) [µM]	GI50 (HCT-15 colon) [µM]	GI50 (KM12 colon) [µM]	GI50 (CCRF-CEM leukemia) [µM]	GI50 (RPMI-8226 leukemia) [µM]	GI50 (A549 NSCLC) [µM]
CCc1n[nH]c(=O)n1CCCCCCCCn1c(CC)n[nH]c1=O	> 100	> 100	> 100	> 100	> 100	> 100	> 100	> 100	> 100	> 100	–	–	–	–	–	–	–	–	–	–
COc1ccc(Nc2nc3ccccc3n3cccc23)cc1OC	39.2	> 100	35.9	33.1	42.8	31.6	29.1	15.2	54.3	43.6	–	–	–	–	–	–	–	–	–	–
CC(C)N(C(=O)C12C3C4C1C1C2C3C41C#N)C(C)C (stereo not given)	> 100	> 100	> 100	> 100	> 100	> 100	> 100	> 85.1	> 68.1	> 100	–	–	–	–	–	–	–	–	–	–
COCC(C)(C)N=CN1Cc2cc3ccccc3nc2C1	> 100	> 100	> 100	> 100	> 100	> 100	> 100	> 100	> 100	> 100	–	–	–	–	–	–	–	–	–	–
O=c1[nH]/c(=C/c2ccc3c(c2)OCO3)c(=O)[nH]/c1=C/c1ccc2c(c1)OCO2	> 10	> 10	> 10	> 10	> 10	> 10	> 10	> 10	> 10	> 10	–	–	–	–	–	–	–	–	–	–
COc1ccc(-n2c(CCC(=O)O)nc3c2C(=O)c2ccccc2C3=O)cc1	> 100	> 100	> 100	> 100	> 100	> 100	> 100	> 100	> 100	> 100	–	–	–	–	–	–	–	–	–	–
COC(=O)C(=O)C(C(=O)OC)C(=O)C(=O)Nc1c(C)cccc1C (stereo not given)	> 100	> 100	> 100	> 100	> 100	> 100	> 100	> 100	> 100	> 100	–	–	–	–	–	–	–	–	–	–
Cc1c(C)c2c(c(N)c1C#N)C(=O)N(O)C2=O	> 100	> 100	> 100	> 100	> 100	> 100	> 100	> 100	> 100	> 100	–	–	–	–	–	–	–	–	–	–
CC(CSC(=N)N)C(N)=O (stereo not given)	> 100	> 100	> 100	> 100	> 100	> 100	> 100	> 100	> 100	> 100	–	–	–	–	–	–	–	–	–	–
CC(=O)Nc1[nH]n(C)c(=O)c1-c1nnc(C)s1	> 100	> 100	> 100	> 100	> 100	> 100	> 100	> 100	> 100	> 100	–	–	–	–	–	–	–	–	–	–
Cc1ccc(NC(=O)CCCC(=O)CC(=O)c2ccc(Br)cc2)cc1	> 100	> 100	> 100	> 100	> 100	> 100	> 100	> 100	> 100	> 100	–	–	–	–	–	–	–	–	–	–
CCN(CC)CCCNc1c2c(Cl)cc(Cl)cc2nc2nc(=O)[nH]c(C)c12	> 100	36.4	33.9	> 100	> 100	> 100	31.1	> 100	> 10	> 100	–	–	–	–	–	–	–	–	–	–
CN(C)c1ccc(/C=C/C(=O)c2ccc(O)cc2)cc1	> 100	29.9	> 42	> 100	9.37	40.4	> 100	17.4	22	> 100	–	–	–	–	–	–	–	–	–	–
C[C@@H](CC(O)C(O)C(C)(C)O)C1CCC23CC12CCC1[C@@]2(C)CCC(O)C(C)(C)C2CC(OC2OC(CO)C(O)C(O)C2O)[C@]13C (stereo not given in full)	> 10	> 10	> 10	> 10	> 10	> 10	> 10	> 10	> 10	> 10	–	–	–	–	–	–	–	–	–	–
COc1ccc(C2c3cc4c(cc3OC(NNc3ccccc3)C2C)OCO4)cc1 (stereo not given)	> 100	51.7	> 100	54.3	39.8	> 100	> 100	40.5	> 100	> 100	–	–	–	–	–	–	–	–	–	–
COC(=O)C(CC(C)C)NC(=O)C(NC(=O)c1ccc(-c2ccc(Cl)cc2Cl)o1)C(C)C (stereo not given)	61.2	42.6	46	47.2	42.2	75.6	58.9	33.2	40.3	> 100	–	–	–	–	–	–	–	–	–	–
